Data from PMC9450471 (Computational Biology and Chemistry, 2022).
“And” between values parts separate entries of the source, which are not always exact repeats. Equal entries are not always repeated. Where two headings read alike, the source gives them in different places.

Tested on: SARS-CoV-2 (Omicron variant, B.1.1.529/BA.5 sublineage)
Format: cell-based
Settings: for time at which utmost effectiveness against the Omicron variant is reached: after administration/treatment starter

| Compound | 100% CPE Inhibitory Concentration (CPEIC100) | other results |
| --- | --- | --- |
| O=c1[nH]cnc2c([C@@H]3N[C@H](CO)[C@@H](O)[C@H]3O)c[nH]c12 [Forodesine] | 1.6 ± 0.065 µM | time at which utmost effectiveness against the Omicron variant is reached: 3.5 to 9.5 h; 100% CPE Inhibitory Concentration (CPEIC100) (listed as forodesine): 1.6 µM |
| CC(C)Nc1nc2cc(Cl)c(Cl)cc2n1[C@H]1O[C@@H](CO)[C@H](O)[C@@H]1O [Maribavir] | 7.986 ± 0.277 µM |  |
| CC(C)C(=O)OC[C@H]1O[C@@H](n2ccc(NO)nc2=O)[C@H](O)[C@@H]1O [Molnupiravir] | 6.19 ± 0.275 µM | 100% CPE Inhibitory Concentration (CPEIC100) (listed as molnupiravir): 6.19 µM |
| COc1nc(N)nc2c1ncn2[C@@H]1O[C@H](CO)[C@@H](O)[C@@H]1O [Nelarabine] | 4.105 ± 0.149 µM |  |
| CCC(CC)COC(=O)[C@H](C)N[P@](=O)(OC[C@H]1O[C@@](C#N)(c2ccc3c(N)ncnn23)[C@H](O)[C@@H]1O)Oc1ccccc1 [Remdesivir] | 5.883 ± 0.255 µM | 100% CPE Inhibitory Concentration (CPEIC100) (listed as remdesivir): 5.883 µM |
| CC(C)=CCNc1ncnc2c1ncn2[C@@H]1O[C@H](CO)[C@@H](O)[C@H]1O [Riboprine, N ^6-(2-Isopentenyl)adenosine] | 1.11 µM and 1.11 ± 0.047 µM | time at which utmost effectiveness against the Omicron variant is reached: 3.5 to 9.5 h |
| OC[C@H]1O[C@@H](n2cnc3c(N[C@@H]4CCOC4)ncnc32)[C@H](O)[C@@H]1O [Tecadenoson] | 7.645 ± 0.24 µM |  |
| Nc1ncnc2c1ncn2[C@@H]1O[C@H](CO)[C@@H](O)[C@@H]1O [Vidarabine, Arabinosyladenine] | 8.042 ± 0.288 µM |  |
